In patent publication US20110294728A1, “Antiviral Polypeptides” (priority 2008, published 2011):
Read-outs that look alike come from different tables or passages of the source. Where no end group is shown, it is not given here.

Key:
HIV-1 RT = target: T1, HIV-1 RT (Human immunodeficiency virus type 1 group M subtype B, UniProt P03366); test: biochemical
T1 construct: The heterodimeric p66/p51 RT was eluted with an imidazole gradient; p66 and p51 derived from p66 by proteolytic cleavage of the C-terminal RNAse H domain; made in house; host or cells: E. coli (M15 for the His-tagged subunits)
Procedure, shortened: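 HIV-1 RT (20 nM, as added) was preincubated 23 h with increasing peptide concentrations, then reaction buffer was added (Tris pH 8.0, KCl, MgCl2, DTT, 0.15 µM poly(rA)-(dT)15, 15 µM dTTP plus 3H-dTTP, as added) for 30 min at 37 °C. Incorporated 3H was measured after TCA precipitation and filtration by scintillation counting; mean of three experiments.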

HIV-1 integrase [1] = target: T2, HIV-1 integrase (Human immunodeficiency virus type 1 group M subtype B, UniProt P04585); test: biochemical
T2 construct: Integrase is a 32 kDA viral protein that is biologically active under a multimeric form
Method: (§1) The simultaneous measurement of integrase-DNA interaction and subsequent 3′-processing activity by steady-state fluorescence anisotropy was performed as described in Guiot et al. (2006). […] After the initial DNA-binding step (performed at 25° C.), the 3′-processing activity was measured at 37° C. by fixed-time experiments: The reaction was stopped at varying times by adding SDS (0.25% final) which disrupts all IN-DNA complexes in the sample. The IN-mediated cleavage of the terminal GT dinucleotide (labeled by fluorescein on the 3′-end) leads to a significant decrease of r as compared to the r value corresponding to the fluorescein-labeled unprocessed DNA substrate. The fraction of released dinucleotide is calculated by using Eq. (1): […]

HIV-1 strain 2914 = conditions: peptide with Pep-1 or Pep-3 at ratio 20/1, combinations with Pep-3
HIV-1 integrase [2] = target: T2, HIV-1 integrase; test: biochemical; assay type: binding
Method: Fluorescein-labeled peptides (40 nM) were mixed with varying concentrations of integrase in 20 mM Tris pH 7.2, 50 mM NaCl, 10 mM MgCl2, and the r values were recorded.
Effect of the different peptides on the integrase (IN) activity, DNA binding and IN/DNA dissociation were evaluated as described in Example III.1 above, using fluorescence polarization and anisotropy measurements. Binding constant of the peptide for IN was determined by steady state fluorescence and anisotropy.

IN/DNA complexes [3] = target: T3, IN/DNA complexes (Human immunodeficiency virus type 1 group M subtype B, UniProt P04585); test: Dissociation of pre-formed IN-DNA substrate complexes; assay type: biochemical, HIV-1
Method: For dissociation experiments, IN-DNA substrate complexes were pre-formed at 25° C. before addition of peptides. The peptide-mediated dissociation of complexes was then studied at the same temperature by measuring the decrease in the r value as a function of time.

IN/DNA complexes [4] = target: T3, IN/DNA complexes; test: DNA-binding of integrase, fluorescence anisotropy; assay type: biochemical, HIV-1
Method: as §1

HIV-1 strain 2165 = conditions: peptide with Pep-1 or Pep-3 at ratio 20/1, combinations with Pep-3
HIV-1 strain 1650 = conditions: peptide with Pep-1 or Pep-3 at ratio 20/1, combinations with Pep-3
HIV-1 strain BH10 = conditions: peptide with Pep-1 or Pep-3 at ratio 20/1, combinations with Pep-3
wild type HIV 1 virus = test: HIV propagation in Hu-PBL-SCID mice, wild type virus; assay type: in vivo, Hu-PBL-SCID transgenic mice; conditions: 20 mg/kg; peptides formulated with CADY-2c/CADY-1S1; HIV-1 DNA copies in splenocyte extracts
Method: The potency of the peptides p27 (SEQ ID NO: 25) and p16 (SEQ ID NO: 19) was assessed in vivo following intravenous challenge of Hu-PBL-SCID transgenic mice (in which human (hu) peripheral blood leukocytes (PBLs) from healthy Epstein-Barr virus (EBV)-seropositive donors are injected into severe combined immunodeficiency (SCID) mice; Mosier et al., 1988). The mice (6 to 8 week-old male mice, 5 animals per group) were infected with wild type HIV 1 virus or efavirenz-resistance HIV strain harbouring K103N and N341V mutations on reverse transcriptase. Infected mice were treated with peptides formulated with the peptide vector CADY-2c (see above) in water at a ratio 1/20, and then particles were coated with 3% of CADY-1S1 (see above), as described in International Application WO 2007/069090. Particles were injected intravenously (100 μl) every 2 days for 1 week, then HIV-1 copy were quantified by quantitative PCR. Efavirenz (a non-nucleoside reverse transcriptase inhibitor; EFZ) was used a positive drug control.

HIV-1 strain NDK = conditions: peptide with Pep-1 or Pep-3 at ratio 20/1, combinations with Pep-3

Sequence	Ki (HIV-1 RT) [nM]	reduction of efficiency (higher Ki) relative to PAW (HIV-1 RT; relative to PAW) [fold]	EC50 (HIV-1 integrase [1]) [nM]	Ki (HIV-1 integrase [1]) [nM]	IC50 (HIV-1 strain 2914) [nM]	Kd (HIV-1 integrase [2]) [µM]	EC50 (IN/DNA complexes [3]) [nM]	EC50 (IN/DNA complexes [4]) [nM]	IC50 (HIV-1 strain 2165) [nM]	IC50 (HIV-1 strain 1650) [nM]	IC50 (HIV-1 strain BH10) [nM]	HIV propagation in vivo (in words) (wild type HIV 1 virus)	IC50 (HIV-1 strain NDK) [nM]	increase of efficiency relative to PAW (HIV-1 RT; relative to PAW) [fold]	Kd (HIV-1 integrase [2]; read-out: Kd IN binding, Table 10, cell prints μM) [µM]
GTKWLTEVWPL [Peptide P16]	14400	20	10000	10000	1.7	0.12	11000	8000	2.7	7.5	5.9	block HIV propagation in vivo	2.9		
GTKWLTEWIPLTAE [Peptide P27]	50 ± 0.01		> 100000	> 100000	0.2	> 100	> 100000	> 100000	2.6	0.8	1.4	block HIV propagation in vivo	0.3	14	> 100
